Data from PMC8532876, “Can Immobilized Artificial Membrane Chromatography Support the Characterization of Antimicrobial Peptide Origin Derivatives?” (Antibiotics, 2021).
Ends that are not written are not given here.

Assay: not given
Design: method as in PMID 10906732, PMID 27084527
Conditions: model substances of the IAM-HPLC calibration curve, protocol of Valko and coworkers ref 13, 14; cited from earlier work

Compound	CHIIAM of calibration set reference substances
CCCC(=O)c1ccccc1 [butyrophenone]	32.00
CC(=O)Nc1ccccc1 [acetanilidine]	11.50
CC(=O)c1ccccc1 [acetable]	17.20
CCCCCCCC(=O)c1ccccc1 [octanophenone]	49.4
CCC(=O)c1ccccc1 [propiohenone]	25.90
CCCCCC(=O)c1ccccc1 [hexanophenone]	41.80
CCCCCCC(=O)c1ccccc1 [heptanophenone]	45.70
CCCCC(=O)c1ccccc1 [valerophenone]	37.30
CC(=O)Nc1ccc(O)cc1 [acetaminophen]	2.90

Assay: IAM-HPLC, chromatographic hydrophobicity index on an immobilized artificial membrane column
Format: physicochemical
Conditions: IAM.PC.DD2 column, gradient 0–85% acetonitrile in 10-mM phosphoric buffer pH 7.4, 30.0 °C; calculated from retention time with calibration curve
Method: All HPLC experiments were carried out using a Prominence-1 LC-2030C 3D HPLC system (Shimadzu, Tokyo, Japan) equipped with an IAM.PC.DD2 column (10 mm × 4.6 mm; particle size 10.0 µm with an IAM guard column; Regis Technologies, Austin Ave, Morton Grove, IL, USA) and diode array detection (DAD). The HPLC system was controlled by LabSolution software (version 5.90, Shimadzu, Japan). The stock solutions of the solutes were diluted to obtain 100-µg/mL concentrations, and the injected volume was 10 µL, which was used for the analytes. The IAM-HPLC analyses were performed with a linear gradient of 0–85% in phase B (where phase A was 10-mM phosphoric buffer at pH 7.4, and phase B was acetonitrile) at a flow rate of 1.5 mL/min. The ultrapure water used for the mobile phase preparation was purified by the Millipore Direct-Q 3 UVWater Purification System (Millipore Corporation, Bedford, MA, USA). The other reagents used for the preparation of the mobile phase: acetonitrile, sodium phosphate dibasic dehydrate, and sodium phosphate monobasic monohydrate (Sigma-Aldrich, Steinheim, Germany) were analytical grade. During the chromatographic analysis, the temperature of the column was constant at 30.0 °C, and the analysis time was 6.5 min. The CHIAM indices of the target solutes were obtained using a calibration set of the reference substances using the protocol developed by Valko and coworkers. The reference substances were purchased, respectively: octanonophenone and butyrophenone acetanilide (Alfa Aesar, Haverhill, MA, USA); acetaminophen, acetophenone, levofloxacin, and ciprofloxacin (Sigma-Aldrich, Steinheim, Germany); and heptanophenone, hexanophenone, valerophenone, propiophenone, and acetophenone (Acros Organic, Pittsburg, PA, USA). Figure 2 presents a correlations plot of the CHIIAM indices of the model substances and experimentally determined retention times.

Compound	CHIIAM
DVIKKVASVIG-NH2 [(4–14) Citropin, analog of citropin 1.1]	27.85
O=C(O)c1cn(C2CC2)c2cc(N3CCNCC3)c(F)cc2c1=O [Ciprofloxacin]	19.70
GLFDVVIGGL-NH2 [(1–5)–(12–16) Citropin, analog of citropin 1.1]	28.66
GLFDVIK-NH2 [(1–7) Citropin, analog of citropin 1.1]	42.15
KVASVIGGL-NH2 [(8–16) Citropin, analog of citropin 1.1]	45.95
C[C@H]1COc2c(N3CCN(C)CC3)c(F)cc3c(=O)c(C(=O)O)cn1c23 [Levofloxacin]	24.88
DVIKKVASVIGGL-NH2 [(4–16) Citropin, analog of citropin 1.1]	38.24
GLFDVIKASVIGGL-NH2 [(1–7)–(10–16) Citropin, analog of citropin 1.1]	37.09
